Results as given in patent US6710066B2, “Photochemotherapeutic method using 5-aminolevulinic acid and other precursors of endogenous porphyrins” (priority 1989, dated 2004).

Legend:
[1] = system: endometrium and myometrium; assay: Endometrial fluorescence in vivo following topical application of ALA in the non-human primate; parameters: species or system rhesus monkey; settings: 50 mg ALA into uterine lumen, hysterectomy 3 hours later
Description: 50 mg of ALA was injected into the uterine lumen of an adult, healthy, female rhesus monkey following exposure of the uterus at laparotomy. A hysterectomy was performed 3 hours later and cross sectional slices incorporating endometrial and myometrial tissue were taken from the uterine specimen. These slices were subjected to examination by fluorescence microscopy as in Example 2 and 3 above.

[2] = system: acne lesions; assay: PpIX induced fluorescence in subjects with truncal acne after topical ALA; assay type: in vivo, human
Description: Evaluation of PpIX induced fluorescence in 8 subjects with mild to moderate truncal acne was performed. Bacterial infections are frequently associated with lesions of acne, e.g., P. acne. Following evaluation of baseline acne lesion fluorescence, ALA solution 10 and 20% was applied to 10 5 cm^2 sites on the chest or back of volunteers and evaluated at times 0, 3, 8 and 24 hours after ALA application. One site of each concentration was also occluded with opaque film for 3 hours and evaluated at similar time points for comparison with unoccluded sites. Fluorescence of both acneiform lesions as well as surrounding normal skin was assessed visually using a 4 point grading system (0=none, 4=extremely severe) and documented photographically.

[3] = system: C. albicans lesions; assay: PpIX fluorescence of intradermal C. albicans lesions in hairless mice given ALA; assay type: in vivo, mouse; settings: 240 mg/kg ALA intraperitoneal, 3 hours
Description: The procedure of Giger et al. Infection and Immunity 19 (2) 499-509 (February 1978) was used with the following modifications. A clinical specimen of C. albicans was replated in blood agar so it was actively growing and left at room temperature for 72 hours. The sample was suspended in TSB to McFarland 0.5 turbidity after which a 1.0 ml sample was inoculated into an aerobic culture bottle and left shaking for 24 hours on a 37° C. rotor shaker. A 10 ml sample was withdrawn and centrifuged at […] for 10 minutes to separate the cells from the media. The supernate was discarded and the pellet resuspended in 10 ml of TSB. Serial dilusions (10^−1 to 10^−5) were made in and replicated twice on agar and left to incubate for two days at 37° C. […]
Three hours prior to their sacrifice, the mice were given 240 mg/kg ALA (10 mg/ml) by intraperitoneal injection, with the exception of mouse #3 which was used as a control. Fluorescence emission spectra on the live mice were taken every 15 minutes (mouse #1 readings every 20 minutes) for 3 hours after injection on each lesion, and at various control areas of the mice—neck skin flap and lateral side opposite the lesion on mouse 5. […] The frozen lesions were sectioned and slides were prepared for spectral analysis or fluorescence microscopy, H and E staining for histology, and Grocott silver stains for fungi identification.

[4] = system: P. yoelii; assay: ALA-induced fluorescence within erythrocytes parasitized by P. yoelii, mice given ALA
[5] = system: Dermatophyte (Trichophyton Species)
[6] = system: P. chabaudi; assay: In vitro photosensitization of P. chabaudi, cells of infected mice incubated with ALA; assay type: cell-based, mouse
[7] = system: Lumbricus terrestris (dewworm); assay: PpIX accumulation on exposure to exogenous ALA, dewworm; settings: exposed to exogenous ALA
[8] = system: L. donovani; assay: PpIX accumulation on exposure to exogenous ALA, Leishmania; settings: exposed to exogenous ALA
[9] = very large doses; cited from earlier work
[10] = system: Candida albicans, Candida glabrata, Cryptococcus neoformans, Penicillium species, Aspergillus niger, Aspergillus fumigatus, Alternaria species, Saccharomyces …; assay: In vitro PpIX fluorescence of yeast and fungi treated with ALA; assay type: cell-based; settings: ALA 1 mM to 100 mM or 20-80% solutions in water
Description: Clinical isolates of Candida albicans, Candida glabrata, and Cryptococcus neoformans and environmental isolates of Penicillium species, Aspergillus niger, Aspergillus fumigatus, and Alternaria species and Saccharomyces cerivisiae (brewer's yeast) obtained from the clinical microbiology laboratories of Kingston General Hospital, Kingston, Ontario, Canada were used. The organisms were plated, and during rapid growth were treated with various concentrations of ALA varying from 1 mM to 100 mM by flooding or by using diffusion wells in the agar, while the isolates of Penicillium and Aspergillus were treated with 40% or 80% solutions of ALA in water and the Penicillium species, Alternaria species, Aspergillus niger and Aspergillus fumigatus were treated with 20% ALA in water via diffusion wells.

[11] = system: P. yoelii
Description: (A) Infectivity Assay: Mice infected with P. yoelii were given a standard dose of ALA by intraperitoneal injection. Peripheral blood and/or spleen cells were collected after a standard interval, exposed to standard doses of photoactivating light (including a no-light control) and then injected into normal mice.
Four hours later, its spleen cells were suspended in isotonic saline. Half of the spleen cell suspension was placed on ice and ekxposed to photoactivating light (waveband 600-700 nm, intensity […], total dose 540 J/cm^2), while the other half was kept on ice in the dark. Balb/c mice were injected intraperitoneally with either the light treated or untreated sample. Survival of the mice was followed for 90 days. FIG. 1 illustrates the duration of survival of individual mice following the injection of spleen cells infected with P. yoelii.

[12] = system: endometrial and myometrial samples; assay: Fluorescence of endometrial and myometrial samples incubated with ALA; assay type: cell-based; settings: 1 mM ALA
Description: The procedures of Example 1 (U.S. Pat. No. 5,422,093) were repeated with 1, 2, 3, 4 and 5 hour incubation periods using a level of 1 mM of ALA.

[13] = ALA solution 10 and 20%, unoccluded sites
[14] = sites occluded with opaque film for 3 hours
[15] = 250 mg/kg ALA intraperitoneal, heavily parasitized mice
[16] = ALA injected into infected mice
[17] = exposed to exogenous ALA, Example 10 list
[18] = ALA in vivo, then photoactivating light

## NCC(=O)CCC(=O)O [ALA, 5-Amino-4-oxopentanoic acid]
[1]
  fluorescence in endometrium: Fluorescence was observed throughout the endometrium of all slices
  fluorescence in myometrium: No fluorescence was observed
[2]; [13]
  PpIX fluorescence by 24 hours: weak or no fluorescence
  dose dependence of increase in PpIX fluorescence: dose dependent
  specificity of PpIX fluorescence: specific for acne lesions and spared normal surrounding skin
  time of maximum PpIX fluorescence: 8 h
[2]; [14]
  PpIX fluorescence at 24 hours: remained present at 24 hours
  distribution of PpIX fluorescence: developed PpIX fluorescence in both acne lesions and normal surrounding skin
[3]
  PpIX accumulation in primary and secondary lesions: increased PpIX accumulation relative to the control mice
[4]; 250 mg/kg ALA IP, 4 hours, excitation 410 nm, emission 635 nm
  protoporphyrin fluorescence of pellet and supernatant after saponin hemolysis: Protoporphyrin fluorescence was detected only in Plasmodial pellet derived from infected mice given ALA
[4]; 250 mg/kg ALA intraperitoneal
  fluorescence microscopy of blood/spleen cells: Red fluorescence developed within parasitized erythrocytes
[4]; [15]
  fluorescence flow cytometry of peripheral blood and spleen erythrocytes: developed red fluorescence
  spectrophotofluorometry of blood and spleen cell pellets: Protoporphyrin was the only fluorophore that was identified
[4]; 250 mg/kg ALA intraperitoneal, tail blood at intervals
  erythrocyte fluorescence by flow cytometer (accumulation of PpIX): Only infected mice given ALA developed fluorescence in their erythrocytes
[4]; [16]
  PpIX accumulation in non-infected erythrocytes and leukocytes: significant concentrations of PpIX did not accumulate
  PpIX accumulation in plasmodia within erythrocytes: accumulated in many of the plasmodia
[4]; [17]
  accumulation of fluorescing concentrations of PpIX: ALA-induced fluorescence
[5]; human, in vivo
  appearance of toe upon completion of treatment: erythematous and somewhat edematous
  subjective response during light exposure: itching, stinging, and a sensation of mild burning
[5]; over the next few months after one treatment
  clinical outcome of fungal infection: all clinical evidence of the fungal infection vanished
[6]
  PpIX accumulation in non-infected erythrocytes and leukocytes: significant concentrations of PpIX did not accumulate
  PpIX accumulation in plasmodia within erythrocytes: accumulated within many of the plasmodia
[7]
  accumulation of fluorescing concentrations of PpIX: ALA-induced fluorescence
  accumulation of photosensitizing concentrations of PpIX: ALA-induced photosensitization
[8]
  accumulation of fluorescing concentrations of PpIX: ALA-induced fluorescence
[9]
  effect on motor nerve conduction velocity: transient decrease in motor nerve conduction velocity
[10]
  PpIX accumulation in molds and yeasts: Positive PpIX accumulation
[11]; [18]
  ability of plasmodia to accumulate calcein from calcein-AM: lost their normal ability to accumulate calcein
  ability of plasmodia to cause malaria in recipient mice: lost their ability to cause malaria when injected into recipient mice
[11]; donor 250 mg/kg ALA, cells exposed to photoactivating light 600-700 nm, 540 J/cm^2
  survival of recipients of infected spleen cells: remained in good health for 90 days
[11]; donor 250 mg/kg ALA, cells kept in the dark
  average survival of recipients of infected spleen cells: 15 days
[11]; [17]
  accumulation of photosensitizing concentrations of PpIX: ALA-induced photosensitization
[12]
  incubation time of maximum fluorescence in endometrial samples: 4 h
[12]; 1-5 hour incubation
  fluorescence in myometrial samples: No significant fluorescence
[12]; incubated for 2 hours
  fluorescence in endometrial samples: No significant fluorescence
